Laboratory results taken from US12723063B2, “GIPR-agonist compounds” (Eli Lilly and Company, priority 2019, dated 2026).
*1 amine or outer side, *2 acyl side, *3 side chain or, on linkers, in order; H or OH if unused. Where a SMILES comes first, the peptide text is derived from it. Side-chain parts run from the residue outwards. [ ]: non-standard residue; d: D form. The star is where a group is joined. C20 diacid = O=C(O)CCCCCCCCCCCCCCCCCCC(=O)*; C18 diacid = O=C(O)CCCCCCCCCCCCCCCCC(=O)*; αMePhe(2-F) = C[C@](N)(Cc1ccccc1F)C(=O)O; γGlu = O=C(O)[C@H](CCC(=O)[*:2])N[*:1]; 4Pal = N[C@@H](Cc1ccncc1)C(=O)O; αMeL = CC(C)C[C@](C)(N)C(=O)O; Orn = NCCC[C@H](N)C(=O)O; AEEA = NCCOCCOCC(=O)O; Aib = CC(C)(N)C(=O)O

Columns and labels:
human GIPR = molecular target: T1, human GIPR (Homo sapiens, UniProt P48546); assay: [125I]-GIP binding, SPA with WGA beads, 0.1% bacitracin; conditions: geometric mean, read-out: hGIPR Ki
T1 construct: expressed in transfected cells; crude membranes
T1 sequence (P48546 22-466): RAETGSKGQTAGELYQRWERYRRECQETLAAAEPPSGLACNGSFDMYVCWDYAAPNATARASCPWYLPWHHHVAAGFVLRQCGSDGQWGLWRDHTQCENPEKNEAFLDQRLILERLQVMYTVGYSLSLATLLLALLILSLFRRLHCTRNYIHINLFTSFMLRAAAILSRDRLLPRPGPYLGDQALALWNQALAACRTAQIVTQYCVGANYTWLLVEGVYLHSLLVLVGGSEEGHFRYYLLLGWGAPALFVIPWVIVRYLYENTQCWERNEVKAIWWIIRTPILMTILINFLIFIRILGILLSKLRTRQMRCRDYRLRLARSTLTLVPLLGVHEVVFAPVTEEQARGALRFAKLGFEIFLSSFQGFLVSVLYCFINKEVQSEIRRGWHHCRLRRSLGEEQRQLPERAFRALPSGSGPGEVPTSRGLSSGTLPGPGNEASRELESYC
How it was run: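 Ki values are geometric means (SEM, n independent days), derived from four-parameter nonlinear regression of IC50. Membranes came from hGIPR-expressing CHO cells.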

human GcgR = molecular target: T2, human GcgR (Homo sapiens, UniProt P47871); assay: [125I]-Glucagon binding, SPA with WGA beads, 0.1% bacitracin; conditions: geometric mean, read-out: hGcgR Ki
T2 construct: expressed in transfected cells; crude membranes
T2 sequence (P47871 26-477): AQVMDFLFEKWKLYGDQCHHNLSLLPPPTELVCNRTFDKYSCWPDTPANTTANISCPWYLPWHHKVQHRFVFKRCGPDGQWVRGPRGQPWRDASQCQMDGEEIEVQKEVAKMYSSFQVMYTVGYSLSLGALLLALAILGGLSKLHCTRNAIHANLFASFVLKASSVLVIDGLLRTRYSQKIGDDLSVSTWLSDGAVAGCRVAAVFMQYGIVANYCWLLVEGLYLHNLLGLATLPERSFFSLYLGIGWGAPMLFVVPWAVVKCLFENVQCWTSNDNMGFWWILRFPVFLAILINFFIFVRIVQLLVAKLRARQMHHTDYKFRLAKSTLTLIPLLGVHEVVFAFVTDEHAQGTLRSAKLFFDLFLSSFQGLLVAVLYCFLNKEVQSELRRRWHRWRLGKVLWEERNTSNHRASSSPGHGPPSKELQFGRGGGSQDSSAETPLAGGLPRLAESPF
How it was run: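 SPA competition binding with WGA beads on crude membranes from HEK293 cells stably expressing hGcgR. Buffer: 25 mM HEPES pH 7.4, 2.5 mM CaCl2, 1 mM MgCl2, 0.1% bacitracin, 0.003% Tween-20; 10-point 3-fold dilutions, NSB with 1 μM Gcg.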

Row | SMILES | Ki (human GIPR) | Ki (human GcgR)
1 | CC[C@H](C)[C@H](NC(=O)[C@H](CO)NC(=O)[C@H](Cc1ccc(O)cc1)NC(=O)[C@H](CC(=O)O)NC(=O)[C@H](CO)NC(=O)[C@@H](NC(=O)[C@](C)(Cc1ccccc1F)NC(=O)[C@@H](NC(=O)CNC(=O)[C@H](CCC(=O)O)NC(=O)C(C)(C)NC(=O)[C@@H](N)Cc1ccc(O)cc1)[C@@H](C)O)[C@@H](C)CC)C(=O)N[C@@H](C)C(=O)N[C@@H](CC(C)C)C(=O)N[C@@H](CC(=O)O)C(=O)N[C@@H](CCCCN)C(=O)N[C@H](C(=O)N[C@@H](Cc1c[nH]cn1)C(=O)N[C@@H](CCC(N)=O)C(=O)NC(C)(C)C(=O)N[C@@H](CCC(=O)O)C(=O)N[C@@H](Cc1ccccc1)C(=O)N[C@H](C(=O)N[C@@H](CC(N)=O)C(=O)N[C@@H](Cc1ccc(O)cc1)C(=O)N[C@@H](CCCCNC(=O)COCCOCCNC(=O)COCCOCCNC(=O)CC[C@H](NC(=O)CCCCCCCCCCCCCCCCCCC(=O)O)C(=O)O)C(=O)N[C@@H](CC(C)C)C(=O)N[C@@H](CCC(=O)O)C(=O)NCC(=O)NCC(=O)N1CCC[C@H]1C(=O)N[C@@H](CO)C(=O)N[C@@H](CO)C(=O)NCC(=O)N[C@@H](C)C(=O)N1CCC[C@H]1C(=O)N1CCC[C@H]1C(=O)N1CCC[C@H]1C(=O)N[C@@H](CO)C(N)=O)C(C)C)[C@@H](C)CC [Example 95] (H-Y[Aib]EGT[αMePhe(2-F)]ISDYSIALDKIHQ[Aib]EFVNYK([AEEA-AEEA-γGlu-C20 diacid])LEGGPSSGAPPPS-NH2) | 0.0255 nM | 85 nM
2 | CC[C@H](C)[C@H](NC(=O)[C@H](CO)NC(=O)[C@H](Cc1ccc(O)cc1)NC(=O)[C@H](CC(=O)O)NC(=O)[C@H](CO)NC(=O)[C@@H](NC(=O)[C@H](Cc1ccccc1)NC(=O)[C@@H](NC(=O)CNC(=O)[C@H](CCC(=O)O)NC(=O)[C@@H](C)NC(=O)[C@@H](N)Cc1ccc(O)cc1)[C@@H](C)O)[C@@H](C)CC)C(=O)N[C@@H](CC(C)C)C(=O)N[C@@H](CC(C)C)C(=O)N[C@@H](CC(=O)O)C(=O)N[C@@H](CCCCN)C(=O)N[C@@H](CCCCNC(=O)COCCOCCNC(=O)COCCOCCNC(=O)CC[C@H](NC(=O)CCCCCCCCCCCCCCCCC(=O)O)C(=O)O)C(=O)N[C@@H](C)C(=O)N[C@@H](CCC(N)=O)C(=O)NC(C)(C)C(=O)N[C@@H](CC(=O)O)C(=O)N[C@@H](Cc1ccccc1)C(=O)N[C@H](C(=O)N[C@@H](CC(N)=O)C(=O)N[C@@H](Cc1c[nH]c2ccccc12)C(=O)N[C@@H](CC(C)C)C(=O)N[C@@H](CC(C)C)C(=O)N[C@@H](C)C(=O)NCC(=O)NCC(=O)N1CCC[C@H]1C(=O)N[C@@H](CO)C(=O)N[C@@H](CO)C(=O)NCC(=O)N[C@@H](C)C(=O)N1CCC[C@H]1C(=O)N1CCC[C@H]1C(=O)N1CCC[C@H]1C(=O)N[C@@H](CO)C(N)=O)C(C)C [Example 19] (H-Y[dA]EGTFISDYSILLDKK([AEEA-AEEA-γGlu-C18 diacid])AQ[Aib]DFVNWLLAGGPSSGAPPPS-NH2) | 0.0469 nM | 335 nM
3 | CC[C@H](C)[C@H](NC(=O)[C@H](Cc1ccccc1)NC(=O)[C@@H](NC(=O)CNC(=O)[C@H](CCC(=O)O)NC(=O)C(C)(C)NC(=O)[C@@H](N)Cc1ccc(O)cc1)[C@@H](C)O)C(=O)N[C@@H](CO)C(=O)N[C@@H](CC(=O)O)C(=O)N[C@@H](Cc1ccc(O)cc1)C(=O)N[C@@H](CO)C(=O)N[C@H](C(=O)N[C@@](C)(CC(C)C)C(=O)N[C@@H](CC(C)C)C(=O)N[C@@H](CC(=O)O)C(=O)N[C@@H](CCCCN)C(=O)N[C@@H](CCCCNC(=O)COCCOCCNC(=O)COCCOCCNC(=O)CC[C@H](NC(=O)CCCCCCCCCCCCCCCCCCC(=O)O)C(=O)O)C(=O)N[C@@H](Cc1c[nH]cn1)C(=O)N[C@@H](CCC(N)=O)C(=O)NC(C)(C)C(=O)N[C@@H](CC(=O)O)C(=O)N[C@@H](Cc1ccccc1)C(=O)N[C@H](C(=O)N[C@@H](CCC(=O)O)C(=O)N[C@@H](Cc1ccncc1)C(=O)N[C@@H](CC(C)C)C(=O)N[C@@H](CC(C)C)C(=O)N[C@@H](CCC(=O)O)C(=O)N[C@@H](C)C(=O)NCC(=O)N1CCC[C@H]1C(=O)N[C@@H](CO)C(=O)N[C@@H](CO)C(=O)NCC(=O)N[C@@H](C)C(=O)N1CCC[C@H]1C(=O)N1CCC[C@H]1C(=O)N1CCC[C@H]1C(=O)N[C@@H](CO)C(N)=O)C(C)C)[C@@H](C)CC [Example 3] | 0.0525 nM | 338 nM
4 | CC[C@H](C)[C@H](NC(=O)[C@H](Cc1ccccc1)NC(=O)[C@@H](NC(=O)CNC(=O)[C@H](CCC(=O)O)NC(=O)C(C)(C)NC(=O)[C@@H](N)Cc1ccc(O)cc1)[C@@H](C)O)C(=O)N[C@@H](CO)C(=O)N[C@@H](CC(=O)O)C(=O)N[C@@H](Cc1ccc(O)cc1)C(=O)N[C@@H](CO)C(=O)N[C@H](C(=O)N[C@@](C)(CC(C)C)C(=O)N[C@@H](CC(C)C)C(=O)N[C@@H](CC(=O)O)C(=O)N[C@@H](CCCN)C(=O)N[C@@H](CCCCNC(=O)COCCOCCNC(=O)COCCOCCNC(=O)CC[C@H](NC(=O)CCCCCCCCCCCCCCCCC(=O)O)C(=O)O)C(=O)N[C@@H](Cc1c[nH]cn1)C(=O)N[C@@H](CCC(N)=O)C(=O)NC(C)(C)C(=O)N[C@@H](CC(=O)O)C(=O)N[C@@H](Cc1ccccc1)C(=O)N[C@H](C(=O)N[C@@H](CCC(=O)O)C(=O)N[C@@H](Cc1ccncc1)C(=O)N[C@@H](CC(C)C)C(=O)N[C@@H](CC(C)C)C(=O)N[C@@H](CCC(=O)O)C(=O)N[C@@H](C)C(=O)NCC(=O)N1CCC[C@H]1C(=O)N[C@@H](CO)C(=O)N[C@@H](CO)C(=O)NCC(=O)N[C@@H](C)C(=O)N1CCC[C@H]1C(=O)N1CCC[C@H]1C(=O)N1CCC[C@H]1C(=O)N[C@@H](CO)C(N)=O)C(C)C)[C@@H](C)CC [Example 87] (H-Y[Aib]EGTFISDYSI[αMeL]LD[Orn]K([AEEA-AEEA-γGlu-C18 diacid])HQ[Aib]DFVE[4Pal]LLEAGPSSGAPPPS-NH2) | 0.0538 nM | 576 nM
5 | CC[C@H](C)[C@H](NC(=O)[C@H](CO)NC(=O)[C@H](Cc1ccc(O)cc1)NC(=O)[C@H](CC(=O)O)NC(=O)[C@H](CO)NC(=O)[C@@H](NC(=O)[C@H](Cc1ccccc1)NC(=O)[C@@H](NC(=O)CNC(=O)[C@H](CCC(=O)O)NC(=O)[C@@H](C)NC(=O)[C@@H](N)Cc1ccc(O)cc1)[C@@H](C)O)[C@@H](C)CC)C(=O)N[C@@H](CC(C)C)C(=O)N[C@@H](CC(C)C)C(=O)N[C@@H](CC(=O)O)C(=O)N[C@@H](CCCCN)C(=O)N[C@@H](CCCCNC(=O)COCCOCCNC(=O)COCCOCCNC(=O)CC[C@H](NC(=O)CCCCCCCCCCCCCCCCC(=O)O)C(=O)O)C(=O)N[C@@H](C)C(=O)N[C@@H](CCC(N)=O)C(=O)NC(C)(C)C(=O)N[C@@H](CC(=O)O)C(=O)N[C@@H](Cc1ccccc1)C(=O)N[C@H](C(=O)N[C@@H](CCC(=O)O)C(=O)N[C@@H](Cc1c[nH]c2ccccc12)C(=O)N[C@@H](CC(C)C)C(=O)N[C@@H](CC(C)C)C(=O)N[C@@H](C)C(=O)N[C@@H](CCC(N)=O)C(=O)NCC(=O)N1CCC[C@H]1C(=O)N[C@@H](CO)C(=O)N[C@@H](CO)C(=O)NCC(=O)N[C@@H](C)C(=O)N1CCC[C@H]1C(=O)N1CCC[C@H]1C(=O)N1CCC[C@H]1C(=O)N[C@@H](CO)C(N)=O)C(C)C [Example 16] (H-Y[dA]EGTFISDYSILLDKK([AEEA-AEEA-γGlu-C18 diacid])AQ[Aib]DFVEWLLAQGPSSGAPPPS-NH2) | 0.0438 nM | 549 nM
